Test results from patent publication US10975080B2, “Compounds and compositions for inhibiting the activity of SHP2” (NOVARTIS AG, priority 2015, dated 2021).
pIC50: −log10 of the molar value.

Molecular target: SHP2 (Homo sapiens (Human), UniProt Q06124)
Assay: SHP2 Allosteric Inhibition Assay
Format: biochemical
Conditions: 0.5 nM SHP2 with 0.5 μM peptide IRS1_pY1172(dPEG8)pY1222; surrogate substrate DiFMUP; 25° C.; read-out: SHP2 IC50
Method in brief: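 Phosphatase activity of bis-tyrosyl-phosphopeptide-activated SHP2 was read by prompt fluorescence from DiFMUP turnover. After 30–60 min preincubation at 25 °C, DiFMUP was added for 30 min at 25 °C. IC50s came from control-normalized dose-response fitting.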

Row | pIC50 | SMILES
1 | 7.64 | C[C@@H]1OCC2(CCN(c3nc4[nH]nc(-c5ccc(N)nc5Cl)c4c(=O)n3C)CC2)[C@@H]1N [Example 52, 3-(6-amino-2-chloropyridin-3-yl)-6-((3S,4S)-4-amino-3-methyl-2-oxa-8-azaspiro[4.5]decan-8-yl)-5-methyl-1,5-dihydro-4H-pyrazolo[3,4-d]pyrimidin-4-one]
2 | 7.08 | C[C@@H]1OCC2(CCN(c3nc4[nH]nc(-c5cccc(N)c5)c4c(=O)n3C)CC2)[C@@H]1N [Example 55, 6-((3S,4S)-4-amino-3-methyl-2-oxa-8-azaspiro[4.5]decan-8-yl)-3-(3-aminophenyl)-5-methyl-1,5-dihydro-4H-pyrazolo[3,4-d]pyrimidin-4-one]
3 | 7.96 | C[C@@H]1OCC2(CCN(c3nc4[nH]nc(-c5ccc(F)cc5)c4c(=O)n3C)CC2)[C@@H]1N [Example 57, 6-((3S,4S)-4-amino-3-methyl-2-oxa-8-azaspiro[4.5]decan-8-yl)-3-(4-fluorophenyl)-5-methyl-1,5-dihydro-4H-pyrazolo[3,4-d]pyrimidin-4-one]
4 | 7.96 | C[C@@H]1OCC2(CCN(c3nc4[nH]nc(-c5ccc(F)c(F)c5)c4c(=O)n3C)CC2)[C@@H]1N [Example 58, 6-((3S,4S)-4-amino-3-methyl-2-oxa-8-azaspiro[4.5]decan-8-yl)-3-(3,4-difluorophenyl)-5-methyl-1,5-dihydro-4H-pyrazolo[3,4-d]pyrimidin-4-one]
5 | 7.85 | C[C@@H]1OCC2(CCN(c3nc4[nH]nc(-c5cccc(F)c5)c4c(=O)n3C)CC2)[C@@H]1N [Example 61, 6-((3S,4S)-4-amino-3-methyl-2-oxa-8-azaspiro[4.5]decan-8-yl)-3-(3-fluorophenyl)-5-methyl-1,5-dihydro-4H-pyrazolo[3,4-d]pyrimidin-4-one]
6 | 7.64 | C[C@@H]1OCC2(CCN(c3nc4[nH]nc(-c5ccccc5F)c4c(=O)n3C)CC2)[C@@H]1N [Example 63, 6-((3S,4S)-4-amino-3-methyl-2-oxa-8-azaspiro[4.5]decan-8-yl)-3-(2-fluorophenyl)-5-methyl-1,5-dihydro-4H-pyrazolo[3,4-d]pyrimidin-4-one]
7 | 7.62 | COc1ccc(-c2n[nH]c3nc(N4CCC5(CC4)CO[C@@H](C)[C@H]5N)n(C)c(=O)c23)cn1 [Example 64, 6-((3S,4S)-4-amino-3-methyl-2-oxa-8-azaspiro[4.5]decan-8-yl)-3-(6-methoxypyridin-3-yl)-5-methyl-1,5-dihydro-4H-pyrazolo[3,4-d]pyrimidin-4-one]
8 | 7.02 | Cc1ncccc1-c1n[nH]c2nc(N3CCC4(CC3)CO[C@@H](C)[C@H]4N)n(C)c(=O)c12 [Example 67, 6-((3S,4S)-4-amino-3-methyl-2-oxa-8-azaspiro[4.5]decan-8-yl)-5-methyl-3-(2-methylpyridin-3-yl)-1,5-dihydro-4H-pyrazolo[3,4-d]pyrimidin-4-one]
9 | 7.41 | Cn1c(N2CCC3(CC2)COC[C@H]3N)nc2[nH]nc(-c3ccncc3)c2c1=O [Example 69, (S)-6-(4-amino-2-oxa-8-azaspiro[4.5]decan-8-yl)-5-methyl-3-(pyridin-4-yl)-1,5-dihydro-4H-pyrazolo[3,4-d]pyrimidin-4-one]
10 | 8.10 | C[C@@H]1OCC2(CCN(c3nc4[nH]nc(-c5ccncc5)c4c(=O)n3C)CC2)[C@@H]1N [Example 70, 6-((3S,4S)-4-amino-3-methyl-2-oxa-8-azaspiro[4.5]decan-8-yl)-5-methyl-3-(pyridin-4-yl)-1,5-dihydro-4H-pyrazolo[3,4-d]pyrimidin-4-one]

Continued, compound first:

Row | SMILES | pIC50
11 | Cc1nc(N)ccc1-c1n[nH]c2nc(N3CCC4(CC3)C[C@@H](C)C[C@H]4N)n(C)c(=O)c12 [Example 48, 3-(6-amino-2-methylpyridin-3-yl)-6-((1R,3R)-1-amino-3-methyl-8-azaspiro[4.5]decan-8-yl)-5-methyl-1,5-dihydro-4H-pyrazolo[3,4-d]pyrimidin-4-one] | 7.80
12 | Cc1nc(N)ccc1-c1n[nH]c2nc(N3CCC4(CC3)CC(F)(F)C[C@H]4N)n(C)c(=O)c12 [Example 49, (R)-3-(6-amino-2-methylpyridin-3-yl)-6-(1-amino-3,3-difluoro-8-azaspiro[4.5]decan-8-yl)-5-methyl-1,5-dihydro-4H-pyrazolo[3,4-d]pyrimidin-4-one] | 8.05
13 | Cn1c(N2CCC3(CC2)CC(F)(F)C[C@H]3N)nc2[nH]nc(-c3ccnc(NC4CC4)c3Cl)c2c1=O [Example 50, (R)-6-(1-amino-3,3-difluoro-8-azaspiro[4.5]decan-8-yl)-3-(3-chloro-2-(cyclopropylamino)pyridin-4-yl)-5-methyl-1,5-dihydro-4H-pyrazolo[3,4-d]pyrimidin-4-one] | 7.46
14 | Cn1c(N2CCC3(CC2)CC(F)(F)C[C@H]3N)nc2[nH]nc(-c3ccncc3)c2c1=O [Example 51, (R)-6-(1-amino-3,3-difluoro-8-azaspiro[4.5]decan-8-yl)-5-methyl-3-(pyridin-4-yl)-1,5-dihydro-4H-pyrazolo[3,4-d]pyrimidin-4-one] | 7.85
15 | Cc1nc(N)ccc1-c1n[nH]c2nc(N3CCC4(CC3)C[C@@H](C(F)(F)F)C[C@H]4N)n(C)c(=O)c12 [Example 53, 3-(6-amino-2-methylpyridin-3-yl)-6-((1R,3R)-1-amino-3-(trifluoromethyl)-8-azaspiro[4.5]decan-8-yl)-5-methyl-1,5-dihydro-4H-pyrazolo[3,4-d]pyrimidin-4-one] | 7.44
16 | Cn1c(N2CCC3(CC2)C[C@@H](C(F)(F)F)C[C@H]3N)nc2[nH]nc(-c3ccncc3)c2c1=O [Example 54, 6-((1R,3R)-1-amino-3-(trifluoromethyl)-8-azaspiro[4.5]decan-8-yl)-5-methyl-3-(pyridin-4-yl)-1,5-dihydro-4H-pyrazolo[3,4-d]pyrimidin-4-one] | 7.68
17 | C[C@@H]1OCC2(CCN(c3nc4[nH]nc(-c5ccc6c(c5)CCO6)c4c(=O)n3C)CC2)[C@@H]1N [Example 56, 6-((3S,4S)-4-amino-3-methyl-2-oxa-8-azaspiro[4.5]decan-8-yl)-3-(2,3-dihydrobenzofuran-5-yl)-5-methyl-1,5-dihydro-4H-pyrazolo[3,4-d]pyrimidin-4-one] | 7.02
18 | COc1ccc(-c2n[nH]c3nc(N4CCC5(CC4)CO[C@@H](C)[C@H]5N)n(C)c(=O)c23)cc1F [Example 59, 6-((3S,4S)-4-amino-3-methyl-2-oxa-8-azaspiro[4.5]decan-8-yl)-3-(3-fluoro-4-methoxyphenyl)-5-methyl-1,5-dihydro-4H-pyrazolo[3,4-d]pyrimidin-4-one] | 7.89
19 | C[C@@H]1OCC2(CCN(c3nc4[nH]nc(-c5cccc(F)c5F)c4c(=O)n3C)CC2)[C@@H]1N [Example 60, 6-((3S,4S)-4-amino-3-methyl-2-oxa-8-azaspiro[4.5]decan-8-yl)-3-(2,3-difluorophenyl)-5-methyl-1,5-dihydro-4H-pyrazolo[3,4-d]pyrimidin-4-one] | 7.89
20 | C[C@@H]1OCC2(CCN(c3nc4[nH]nc(-c5cc(F)ccc5F)c4c(=O)n3C)CC2)[C@@H]1N [Example 62, 6-((3S,4S)-4-amino-3-methyl-2-oxa-8-azaspiro[4.5]decan-8-yl)-3-(2,5-difluorophenyl)-5-methyl-1,5-dihydro-4H-pyrazolo[3,4-d]pyrimidin-4-one] | 7.77
21 | C[C@@H]1OCC2(CCN(c3nc4[nH]nc(-c5cc(F)cc(F)c5)c4c(=O)n3C)CC2)[C@@H]1N [Example 65, 6-((3S,4S)-4-amino-3-methyl-2-oxa-8-azaspiro[4.5]decan-8-yl)-3-(3,5-difluorophenyl)-5-methyl-1,5-dihydro-4H-pyrazolo[3,4-d]pyrimidin-4-one] | 7.42
22 | COc1ccccc1-c1n[nH]c2nc(N3CCC4(CC3)CO[C@@H](C)[C@H]4N)n(C)c(=O)c12 [Example 66, 6-((3S,4S)-4-amino-3-methyl-2-oxa-8-azaspiro[4.5]decan-8-yl)-3-(2-methoxyphenyl)-5-methyl-1,5-dihydro-4H-pyrazolo[3,4-d]pyrimidin-4-one] | 7.04
23 | COc1cccc(-c2n[nH]c3nc(N4CCC5(CC4)COC[C@H]5N)n(C)c(=O)c23)c1Cl [Example 68, (S)-6-(4-amino-2-oxa-8-azaspiro[4.5]decan-8-yl)-3-(2-chloro-3-methoxyphenyl)-5-methyl-1,5-dihydro-4H-pyrazolo[3,4-d]pyrimidin-4-one] | 7.60
24 | C[C@@H]1OCC2(CCN(c3nc4[nH]nc(-c5ccnc(N(C)C)c5Cl)c4c(=O)n3C)CC2)[C@@H]1N [Example 71, 6-((3S,4S)-4-amino-3-methyl-2-oxa-8-azaspiro[4.5]decan-8-yl)-3-(3-chloro-2-(dimethylamino)pyridin-4-yl)-5-methyl-1,5-dihydro-4H-pyrazolo[3,4-d]pyrimidin-4-one] | 7.66
25 | CCNc1nccc(-c2n[nH]c3nc(N4CCC5(CC4)CO[C@@H](C)[C@H]5N)n(C)c(=O)c23)c1Cl [Example 72, 6-((3S,4S)-4-amino-3-methyl-2-oxa-8-azaspiro[4.5]decan-8-yl)-3-(3-chloro-2-(ethylamino)pyridin-4-yl)-5-methyl-1,5-dihydro-4H-pyrazolo[3,4-d]pyrimidin-4-one] | 7.33
26 | C[C@H]1C[C@@H](N)C2(CCN(c3nc4[nH]nc(-c5ccnc(N(C)C)c5Cl)c4c(=O)n3C)CC2)C1 [Example 73, 6-((1R,3R)-1-amino-3-methyl-8-azaspiro[4.5]decan-8-yl)-3-(3-chloro-2-(dimethylamino)pyridin-4-yl)-5-methyl-1,5-dihydro-4H-pyrazolo[3,4-d]pyrimidin-4-one] | 7.55
27 | C[C@@H]1OCC2(CCN(c3nc4[nH]nc(-c5ccnc(NCC6CC6)c5Cl)c4c(=O)n3C)CC2)[C@@H]1N [Example 74, 6-((3S,4S)-4-amino-3-methyl-2-oxa-8-azaspiro[4.5]decan-8-yl)-3-(3-chloro-2-((cyclopropylmethyl)amino)pyridin-4-yl)-5-methyl-1,5-dihydro-4H-pyrazolo[3,4-d]pyrimidin-4-one] | 7.41
